# Results reported in patent US20050042308A1, “Pharmaceutical composition having cholagogic and litholytic effect and its preparation method” (priority 2001, published 2005).
# Marks after values point to notes of the source that are not given here.
# Key:
# [1] = tested on: bile secretion of the rat; experiment: Cholagogue experiment in rat (bile efflux coefficient); type: in vivo; details: Eulektrol 0.150 ml/kg; for bile efflux coefficient before 1 hour: before drug administration, Cholanic acid 100 mg (pure substance), Dehydrogenized Cholanic acid 100 mg (pure substance) groups; for (%) increase of bile efflux coefficient compared with control group, after 1 hour / (%) increase of bile efflux coefficient compared with control group, after 2 hours / (%) increase of bile efflux coefficient compared with control group, after 3 hours / (%) increase of bile efflux coefficient compared with control group, after 4 hours / bile efflux coefficient after 1 hour / bile efflux coefficient after 2 hours / bile efflux coefficient after 3 hours / bile efflux coefficient after 4 hours: into duodenum, Cholanic acid 100 mg, Dehydrogenized Cholanic acid 100 mg (pure substance)
# Experimental: After grouping, the experimental rats are fasting for 16 hours before experiment; anesthetize these rats through ip ethyl carbamate (also named Urethane). After anesthesia, enlace the four limbs; incise the abdomen to find the pylorus of the stomach. Along the pylorus, find common bile duct. Use little forceps to deliminate the surface envelope and reveal the common bile duct, ligate the lower extremity, carefully shear a little ventage, insert plastic duct with external diameter 1 mm into the common bile duct proximal to the liver to drain the bile. After bile drainage volume is stable, record the bile collection volume every 0.5 hour, for two times.
# [2] = tested on: bilirubin in bile; experiment: The measure of bilirubin of bile; type: in vivo; details: cholanic acid 0.1(g), Eulektrol 0.15(g), Dehydrogenized cholanic acid 0.1(g)
# [3] = tested on: cholelithiasis patients; details: cited from earlier work
# [4] = tested on: auricular swollen of mouse caused by dimethylbenzene; experiment: Auricular inflammation of mouse caused by dimethylbenzene; type: in vivo; details: Eulektrol 0.15 ml/kg; Indothemacin 30 (mg)
# [5] = tested on: gallbladder muscle stripe in vitro; experiment: Gallbladder smooth muscle contraction caused by acetylcholine; set-up: species or system guinea pig
# Experimental: Krebs liquid culture plate, anatomize longitudinally to get 2 pieces of muscle stripe of gallbladder with 10 mm length and […] width. Place the muscle stripe into 37° C. constant temperature Mcrruary bath with Kmbs solution (20 ml), the lower end is fixed on the hook at the bottom of the bath, the upper end is connected to the energy transducer, adjust the oxygen flow gas bubble to tiny and uniform flow, the energy transducer is connected to physiological recorder with prepositive amplifier. Every time after adding test solution observes for more than 3 minutes. When reaching the biggest effect, timely rinse the bath with flushing solution three times with 15 minutes break. After the contraction curve becomes balanced, to make another experiment. […] Krebs solution should be prepared with double-distilled water). After adding acetylcholine, record the contraction curve of gallbladder muscle. From the contraction curve, we can see the amplitude of contraction curve rise. After contraction curve reaches peak-balance, add different concentration LDRS solution. After adding drug solution, the amplitude of contraction curve of gallbladder muscle stripe descends. Record the altitude of amplitude of every phase. The statistic method is below: before drug administration, from the upper and lower limit point of the amplitude contraction curve of gallbladder muscle stripe to respectively line a straight line parallel to the transverse coordinate axis, measure the altitude between the two parallel line as the normal amplitude (The lower line before drug administration is used as basal line). After contraction curve is stable, adding different concentration Ach solution, we can see the amplitude of contraction curve of gallbladder muscle stripe rise, through the peak of amplitude to line a straight line parallel to basal line and measure the altitude between the two parallel line as amplitude of Ach. After curve is stable, add different concentration LDRS stock solution and through the lowest point of amplitude to line parallel to basal line, measure the altitude between the basal line and the lowest line.
# [6] = tested on: granuloma of rat; experiment: Granuloma of rat caused by agar; type: in vivo; details: Prednisone 30 (mg)
# Text: Thereinto, the inhibition effect of moderates high dose group is compared with control group, P<0.05, P<0.01 respectively, showing significant inhibition effect.
# [7] = tested on: ankle swollen of rat caused by carragheen; experiment: Ankle swollen of the rat caused by carragheen; type: in vivo; details: Eulektrol 0.15 ml/kg, Prednisone acetate 30(mg)
# [8] = tested on: fever of the rat; experiment: Fever of the rat caused by 2, 4-dinitrophenol; type: in vivo; details: Aminopyrine 80(mg), Eulektrol 0.15 ml/kg
# Experimental: Get […] healthy male rats with 1 80˜220 g body weight, randomly separate them into 6 groups according to the body weight with 8 rats in each group. The rats in the 1st group are forced to take 0.5% CMC 10 ml/kg. The rats in the 2nd group are forced to take aminopyrine […]. The rats in 3rd group are forced to take Eulektrol 0.15 ml /kg. The rats in the 4th, 5th, 6th are respectively forced to take LDRS 0.077 ml, 0.154 ml, […]. 15 minutes later after drug administration SC 25 mg/ml 2,4-dinitrophenol in the middle of shoulder and back, then measure the anal temperature in 0 hour before drug administration, 0.25 hours, 0.5 hours, 1 hours, 2 hours, 4 hours after drug administration.
# [9] = series with 8 muscle stripes, Ach 10^−4 ml alone, or LDRS (printed 10^−2 ml) added after Ach
# [10] = series with 13 muscle stripes, Ach 10^−4 ml alone, or LDRS 10^−2 ml added after Ach
Structure (SMILES),bile efflux coefficient before 1 hour [1],"(%) increase of bile efflux coefficient compared with control group, after 1 hour [1]","(%) increase of bile efflux coefficient compared with control group, after 2 hours [1]","(%) increase of bile efflux coefficient compared with control group, after 3 hours [1]","(%) increase of bile efflux coefficient compared with control group, after 4 hours [1]",bile efflux coefficient after 1 hour [1],bile efflux coefficient after 2 hours [1],bile efflux coefficient after 3 hours [1],bile efflux coefficient after 4 hours [1],D-bil in bile ([2]; 1 h),F-bil in bile ([2]; 1 h),T-BIL in bile ([2]; 1 h),D-bil in bile ([2]; 2 h),F-bil in bile ([2]; 2 h),T-BIL in bile ([2]; 2 h),D-bil in bile ([2]; 3 h),F-bil in bile ([2]; 3 h),T-BIL in bile ([2]; 3 h),D-bil in bile ([2]; 4 h),F-bil in bile ([2]; 4 h),also measured
"C[C@H](CCC(=O)O)[C@H]1CC[C@H]2[C@@H]3C(=O)C[C@@H]4CC(=O)CC[C@]4(C)[C@H]3CC(=O)[C@]12C [Dehydrogenized Cholanic acid, dehydrogenized cholanic acid]",0.116 ± 0.04 ml(bile)/100 g · bw,5.8%,57.0%,102.7%,85.8%,0.165 ± 0.08 ml(bile)/100 g · bw,0.234 ± 0.07 ml(bile)/100 g · bw,0.223 ± 0.05 ml(bile)/100 g · bw,0.210 ± 0.07 ml(bile)/100 g · bw,57.8 ± 12.8 mmol/L,15.4 ± 4.9 mmol/L,73.1 ± 14.1 mmol/L,43.4 ± 15.5 mmol/L,10.9 ± 11.2 mmol/L,54.3 ± 23.9 mmol/L,39.9 ± 10.2 mmol/L,8.16 ± 3.1 mmol/L,48.1 ± 14.8 mmol/L,45.7 ± 16.4 mmol/L,13.6 ± 5.69 mmol/L,T-BIL in bile ([2]; 4 h): 59.3 ± 19.7 mmol/L
"C[C@H](CCC(=O)O)[C@H]1CC[C@H]2[C@@H]3CCC4CCCC[C@]4(C)[C@H]3CC[C@]12C (some centres unmarked) [Cholanic acid, cholanic acid]",0.116 ± 0.04 ml(bile)/100 g · bw,6.4%,26.8%,123.6%,45.1%,0.166 ± 0.04 ml(bile)/100 g · bw,0.189 ± 0.05 ml(bile)/100 g · bw,0.246 ± 0.04 ml(bile)/100 g · bw,0.164 ± 0.04 ml(bile)/100 g · bw,67.3 ± 25.4 mmol/L,26.7 ± 20.1 mmol/L,94.1 ± 37.9 mmol/L,60.8 ± 31.9 mmol/L,16.9 ± 12.8 mmol/L,77.7 ± 38.9 mmol/L,55.3 ± 18.2 mmol/L,27.2 ± 13.9 mmol/L,82.5 ± 29.0 mmol/L,53.0 ± 31.6 mmol/L,28.3 ± 10.6 mmol/L,"efficacy of the therapeutics (reducing the gallstone size, dissolving the gallstone or decreasing the gallstone) ([3]; clinical case report): about 50%; patients with SGOT increase ([3]; treatment of the cholelithiasis): 20%; T-BIL in bile ([2]; 4 h): 81.3 ± 29.8 mmol/L"
"COc1ccc2c(c1)c(CC(=O)O)c(C)n2C(=O)c1ccc(Cl)cc1 [Indothemacin, indomethacin]",–,–,–,–,–,–,–,–,–,–,–,–,–,–,–,–,–,–,–,–,inhibition rate of auricular swelling [4]: 74.0%; the auricular weight difference between left and right [4]: 3.98 ± 2.5 mg/100 g
"CC(=O)OCC[N+](C)(C)C [Ach, acetylcholine]",–,–,–,–,–,–,–,–,–,–,–,–,–,–,–,–,–,–,–,–,"gallbladder contraction amplitude [5, 9]: 32.73 ± 6.90 mm; variation rate of amplitude (normal value = 100.0) [5, 9]: 654.6%; gallbladder contraction amplitude [5, 10]: 35.2 ± 6.84 mm; variation rate of amplitude (normal value = 100.0) [5, 10]: 541.5%"
CC(=O)OCC(=O)[C@@]1(O)CC[C@H]2[C@@H]3CCC4=CC(=O)C=C[C@]4(C)[C@H]3C(=O)C[C@@]21C [Prednisone acetate],–,–,–,–,–,–,–,–,–,–,–,–,–,–,–,–,–,–,–,–,average granuloma coefficient [6]: 0.20 ± 0.08; inhibition rate of granuloma coefficient [6]: 69.2** %; size of ankle ([7]; 2 h after drug): 2.34 ± 0.17 cm; size of ankle ([7]; 4 h after drug): 2.10 ± 0.15 cm; size of ankle ([7]; 8 h after drug): 1.90 ± 0.19 cm; size of ankle ([7]; 16 h after drug): 2.10 ± 0.211 cm; size of ankle ([7]; 20 h after drug): 2.00 ± 0.009 cm
"Cc1c(N(C)C)c(=O)n(-c2ccccc2)n1C [Aminopyrine, aminopyrine]",–,–,–,–,–,–,–,–,–,–,–,–,–,–,–,–,–,–,–,–,the body temperature variation after drug administration ([8]; 0.25 h): −0.21 ± 0.52 °C; the body temperature variation after drug administration ([8]; 0.5 h): −0.05 ± 0.81 °C; the body temperature variation after drug administration ([8]; 1 h): 0.03 ± 0.79 °C; the body temperature variation after drug administration ([8]; 2 h): 0.49 ± 0.47 °C; the body temperature variation after drug administration ([8]; 4 h): 0.30 ± 0.67 °C
